In ChEMBL document CHEMBL5143586, “Advances in the Development of Nonpeptide Small Molecules Targeting Ghrelin Receptor” (J Med Chem, 2022):

Tests used:
[1] = Binding affinity at mouse pancreas GHS-R1a assessed as inhibition constant; type: tissue-based
[2] = molecular target: T1, Growth hormone secretagogue receptor type 1 (Homo sapiens, UniProt Q92847); assay: Antagonist activity at GHS-R1a (unknown origin) relative to control; type: functional
[3] = molecular target: T1, Growth hormone secretagogue receptor type 1; assay: Binding affinity at GHS-R1a (unknown origin) assessed as inhibition constant
[4] = molecular target: T1, Growth hormone secretagogue receptor type 1; assay: Inverse agonist activity at GHS-R1a (unknown origin) relative to control; type: functional

T1 sequence (Q92847 whole entry): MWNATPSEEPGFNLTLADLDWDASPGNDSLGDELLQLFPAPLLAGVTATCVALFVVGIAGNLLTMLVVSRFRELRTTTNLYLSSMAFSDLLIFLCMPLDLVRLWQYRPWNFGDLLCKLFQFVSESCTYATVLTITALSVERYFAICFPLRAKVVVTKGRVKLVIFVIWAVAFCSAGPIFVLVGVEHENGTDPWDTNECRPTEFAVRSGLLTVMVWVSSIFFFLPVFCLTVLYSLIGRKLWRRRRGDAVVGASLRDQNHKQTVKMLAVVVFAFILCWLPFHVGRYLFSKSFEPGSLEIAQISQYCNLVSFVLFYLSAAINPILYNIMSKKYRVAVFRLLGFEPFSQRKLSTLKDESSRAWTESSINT

Row | SMILES | Ki [1] | Emax [4] | also measured
1 | Cc1ccccc1-c1nc2ccc(-c3ccc(Cl)cc3)cc2c(=O)n1C[C@@H]1CCCN(CC[18F])C1 | 16 nM | – | –
2 | COc1ccc(Cn2c([C@@H](Cc3c[nH]c4ccccc34)NC(=O)CO)nnc2[C@@H](Cc2c[nH]c3ccccc23)NC(=O)[C@H](CC(C)C)NC(=O)[C@H](CC(C)C)NC(C)=O)cc1 | – | – | Emax [2]: 0%
3 | COc1ccc(Cn2c([C@@H](Cc3c[nH]c4ccccc34)NC(=O)[C@H](CC(C)C)NC(=O)[C@H](CC(C)C)NC(C)=O)nnc2[C@@H](Cc2c[nH]c3ccccc23)NC(=O)[C@@H](N)CCCCN)cc1 | – | -37% | Ki [3]: 3 nM
4 | CC(C)C[C@H](NC(=O)[C@H](CC(C)C)NC(=O)[C@@H](Cc1c[nH]c2ccccc12)NC(=O)[C@H](Cc1ccccc1)NC(=O)[C@@H](Cc1c[nH]c2ccccc12)NC(=O)[C@@H](N)CCCCN)C(N)=O | – | -55% | –
5 | Cc1ccccc1-c1nc2ccc(-c3ccc(Cl)cc3)cc2c(=O)n1C[C@@H]1CCCN(CCO[11CH3])C1 | 4 nM | – | –
6 | C[C@H]1CN(C(=O)c2ccc(-c3ccc(O[11CH3])cc3)cc2)CCN1C(=O)c1ccc2cc[nH]c2c1 | 7 nM | – | –
